Results reported in patent US8450067B2, “Method for obtaining anti-idiotype antibodies” (Omrix Biopharmaceuticals Inc., priority 2002, dated 2013).

What was measured:
[1] = system: control IgG (IgG purified from one donor); experiment: Direct binding ELISA, negative control immunoglobulin; set-up: species or system human
Experimental: (§1) The binding of anti-Id to the peptides was tested by ELISA.
(§2) ELISA plates were coated by 10 ug/ml of peptides in PBS overnight at 4° C. The plates were blocked with 3% BSA for 1hr at 37° C. Anti-Id was added at different concentrations. IgG purified from one donor was used as negative control.
(§3) The binding of the immunoglobulin was probed with goat anti-human IgG conjugated to alkaline phosphatase and the appropriate substrate. Between each step, extensive washings were performed with 0.05% PBS-Tween.
(§4) The same protocol was used as above, but the peptides used in this study were taken from the literature except for peptide number 1 which is the first peptide in the previous experiment.

[2] = system: anti-anti-dsDNA (anti-Id) isolated from IVIG; experiment: Direct binding of anti-Id to the synthetic peptides by ELISA; set-up: species or system human
Experimental: as §1, §2, §3, §4

[3] = Table 2, anti-Id 10 μg/ml, plates coated with 10 ug/ml peptide

| binding of control IgG to peptide (OD at 405 nm) ([1]; Table 2, control IgG 1 μg/ml) | binding of control IgG to peptide (OD at 405 nm) ([1]; Table 2, control IgG 5 μg/ml) | binding of control IgG to peptide (OD at 405 nm) ([1]; Table 3, Control IgG 1 μg/ml) | binding of control IgG to peptide (OD at 405 nm) ([1]; Table 3, Control IgG 5 μg/ml) | binding of anti-Id to peptide (OD at 405 nm) ([2]; Table 2, anti-Id 1 μg/ml) | binding of anti-Id to peptide (OD at 405 nm) ([2]; Table 2, anti-Id 2.5 μg/ml) | binding of anti-Id to peptide (OD at 405 nm) ([2]; Table 2, anti-Id 5 μg/ml) | binding of anti-Id to peptide (OD at 405 nm) [2, 3] | binding of anti-Id to peptide (OD at 405 nm) ([2]; Table 3 (literature peptides), anti-Id 10 μg/ml) | binding of anti-Id to peptide (OD at 405 nm) ([2]; Table 3, anti-Id 1 μg/ml) | binding of anti-Id to peptide (OD at 405 nm) ([2]; Table 3, anti-Id 2.5 μg/ml) | binding of anti-Id to peptide (OD at 405 nm) ([2]; Table 3, anti-Id 5 μg/ml) | Substance |
| --- | --- | --- | --- | --- | --- | --- | --- | --- | --- | --- | --- | --- |
| 0.013 | 0.016 | 0.044 | 0.043 | 0.046 | 0.269 | 1.329 | 1.815 | 1.21 | 0.041 | 0.074 | 0.216 | KHETTET [Pep 1] |
| 0.043 | 0.045 | – | – | 0.042 | 0.072 | 0.273 | 1.356 | – | – | – | – | PLPDWRV [Pep 12] |
